The values below come from ChEMBL document CHEMBL5113528 (J Med Chem, 2022).

Experiment [1] deals with T1, N-terminal Xaa-Pro-Lys N-methyltransferase 1 (Homo sapiens, UniProt Q9BV86).
T1 sequence (Q9BV86 whole entry): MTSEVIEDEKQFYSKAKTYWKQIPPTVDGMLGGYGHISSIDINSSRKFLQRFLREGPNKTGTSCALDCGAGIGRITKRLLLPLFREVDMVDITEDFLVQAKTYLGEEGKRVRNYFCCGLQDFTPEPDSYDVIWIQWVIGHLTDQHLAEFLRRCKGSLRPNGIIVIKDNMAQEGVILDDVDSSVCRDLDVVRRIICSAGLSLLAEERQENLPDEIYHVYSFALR
Nature of the experiment: Inhibition of full length His-NTMT1 (1 to 222 residues) (unknown origin) expressed in Escherichia coli BL21 (DE3) assessed as SAH production by Mtase-glo luminescence assay.

In experiment [2] the target is T1, N-terminal Xaa-Pro-Lys N-methyltransferase 1.
Description: Binding affinity to NTMT1 (unknown origin) assessed as dissociation constant in presence of SAM by isothermal titration calorimetry analysis
For experiment [3] the target is unchanged. This is another data set of the same source.
Description: Binding affinity to NTMT1 (unknown origin)assessed as dissociation constant in absence of SAM by isothermal titration calorimetry analysis
For experiment [4] the target is unchanged. Put plainly: Inhibition of full length NTMT1 (1 to 222 residues) (unknown origin) expressed in Escherichia coli BL21 (DE3) using GPKRIA as substrate preincubated for 10 mins followed by substrate addition measured after 15 mins by microplate reader method.

Turning to `C/N=c1\nc(-c2ccccc2)n(-c2ccccc2)s1`, the IC50 in experiment [1] stood at 460 nM.
As for `CC(C)(NC(=O)O[C@@H]1CN2CCC1CC2)c1csc(-c2ccc(F)cc2)n1`, the results for the Kd in experiment [2] and in experiment [3] were 32.5 nM and 160 nM, respectively.
For `CC(C)(NC(=O)O[C@@H]1CN2CCC1CC2)c1csc(-c2ccc(CCC(=O)O)cc2)n1`, the IC50 in experiment [4] was above 100000 nM.
As for `CC(C)(NC(=O)O[C@@H]1CN2CCC1CC2)c1csc(-c2ccccc2)n1`, in experiment [4], the IC50 was 2700 nM.
For `Cc1nc(C(C)(C)NC(=O)O[C@@H]2CN3CCC2CC3)cs1`, the IC50 in experiment [4] is above 100000 nM.
For `CC(C)(NC(=O)OC1CCCCC1)c1csc(-c2ccc(F)cc2)n1`, the IC50 in experiment [4] was above 100000 nM.
The same measure, in the same setting: then `CC(C)(NC(=O)O[C@@H]1CN2CCC1CC2)c1csc(-c2ccc(Br)cc2)n1`, with 1500 nM; and `CC(C)OC(=O)NC(C)(C)c1csc(-c2ccc(F)cc2)n1`, with above 100000 nM; and `CC(C)(NC(=O)O[C@@H]1CN2CCC1CC2)c1csc(-c2ccc(/C=C/C(=O)O)cc2)n1`, with above 100000 nM.
On the same count and under the same terms, then `Cc1ccc(-c2nc(C(C)(C)NC(=O)O[C@@H]3CN4CCC3CC4)cs2)cc1`, with 1700 nM.

A word on the IC50: it is the concentration that gives 50% inhibition. As a reminder, the Kd is the free concentration of one partner at which half of the binding sites on the other are occupied at equilibrium, for simple one-to-one binding. A low value points to a tighter complex.
